The values that follow come from ChEMBL document CHEMBL1201862, “PubChem BioAssay data set” (2004).

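Step 1: Grow cells in 96-well plates. Step 2: Expose to compound for 48 hours at 5 concentrations. Step 3: Interpolate endpoints linearly; if unreached, use highest concentration. Here, GI50 denotes the concentration required for 50% inhibition of growth.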 The source made the active and inactive calls. Rule as the data show it: active = GI50 up to about 1.1 µM and inactive = higher.

Among the test systems are 786-0; CAKI-1; HCC 2998; MCF7; MDA-MB-231; MDA-N; MOLT-4; NCI-H460; NCI/ADR-RES; OVCAR-3; PC-3; RPMI-8226; SF-295; SK-MEL-2; SK-MEL-5; SK-OV-3; SN12C; SR; SW-620; UACC-62.
Common to all, as to assay: growth of human tumour cells (NCI), 48 h

Take `C=C(Cl)/C(=C\Cl)CCC(Cl)C(C)C` (stereo not given): the GI50 in the experiment with 786-0, in the experiment on CAKI-1, in the experiment on HCC 2998, in the experiment on MCF7, in the experiment with MDA-MB-231 and in the experiment on MDA-N was > 100 µM (inactive) in each case. The GI50 with MOLT-4 was 44.2 µM (inactive); in the experiment with NCI-H460, > 100 µM (inactive); in the experiment on NCI/ADR-RES, > 100 µM (inactive); in the experiment with OVCAR-3, > 100 µM (inactive); with PC-3, > 100 µM (inactive); in the experiment on RPMI-8226, 65.2 µM (inactive). Also, the GI50 was > 100 µM (inactive) in the experiment on SF-295; > 100 µM (inactive) in the experiment with SK-MEL-2; > 100 µM (inactive) in the experiment on SK-MEL-5; > 100 µM (inactive) in the experiment with SK-OV-3; > 100 µM (inactive) in the experiment with SN12C; 56.5 µM (inactive) in the experiment on SR. For the same compound, the GI50 in the experiment with SW-620 is 74.3 µM (inactive); in the experiment on UACC-62, > 100 µM (inactive).
On to `CC1(C)CC2C=C(C=O)C3(C=O)CC3(C)C2C1` (stereo not given), for which the GI50 in the experiment with 786-0 is 1.52 µM (inactive); in the experiment with CAKI-1, 2.05 µM (inactive); in the experiment with HCC 2998, 5.5 µM (inactive); with MCF7, 1.34 µM (inactive); in the experiment on MDA-MB-231, 1.91 µM (inactive); with MDA-N, 2.9 µM (inactive). Besides, the GI50 with MOLT-4 is 0.191 µM (active); in the experiment with NCI-H460, 4.44 µM (inactive); in the experiment on NCI/ADR-RES, 1.76 µM (inactive); in the experiment with OVCAR-3 it was 0.944 µM (active); in the experiment on PC-3 it was 1.12 µM (active); in the experiment on RPMI-8226 it was 0.378 µM (active). Also, the GI50 in the experiment on SF-295 is 4.5 µM (inactive); in the experiment with SK-MEL-2, 2.07 µM (inactive); in the experiment with SK-MEL-5 it was 1.64 µM (inactive); in the experiment with SK-OV-3, 3.43 µM (inactive); in the experiment with SN12C, 2.54 µM (inactive); in the experiment with SR it was 0.218 µM (active). The figures for the GI50 with SW-620 and with UACC-62 were 0.582 µM (active) and 5.46 µM (inactive), respectively.
As for `COc1ccc(-c2cn3c(n2)sc2cc(C)ccc23)cc1`, the GI50 in the experiment on 786-0 was 18.3 µM (inactive); in the experiment on CAKI-1 it was 57.5 µM (inactive); in the experiment with HCC 2998, 12.5 µM (inactive); in the experiment with MCF7 it was 4.85 µM (inactive); with MDA-MB-231, 15.5 µM (inactive); in the experiment with MDA-N it was 5.08 µM (inactive). Moreover, the GI50 is 17.5 µM (inactive) with MOLT-4; 20.7 µM (inactive) in the experiment with NCI-H460; > 100 µM (inactive) in the experiment on NCI/ADR-RES; 7.14 µM (inactive) with OVCAR-3; 14.8 µM (inactive) in the experiment with PC-3; 3.93 µM (inactive) with RPMI-8226. Further, the GI50 in the experiment with SF-295 is 16.8 µM (inactive); with SK-MEL-2, 14.3 µM (inactive); in the experiment with SK-MEL-5 it was 3.65 µM (inactive); with SK-OV-3 it was 22.1 µM (inactive); in the experiment with SN12C, 23.7 µM (inactive); with SR it was 4.86 µM (inactive). Also, the GI50 in the experiment with SW-620 was 25.8 µM (inactive); with UACC-62, 12.3 µM (inactive).
`CC(=O)OC(C)C1C2=C(C(=O)CC1(C)O)C(=O)c1c(ccc(-c3ccc4c(c3O)C(=O)C3=C(C4=O)C(C(C)OC(C)=O)C(C)(O)CC3=O)c1O)C2=O` (stereo not given): the GI50 in the experiment with 786-0 was 1.83 µM (inactive); with CAKI-1, 2.82 µM (inactive); with HCC 2998, 10.7 µM (inactive); in the experiment on MCF7, 1.53 µM (inactive); in the experiment with MDA-MB-231 it was 2.42 µM (inactive); in the experiment with MDA-N, 3.15 µM (inactive). Further, the GI50 with MOLT-4 is 1.12 µM (inactive); with NCI-H460 it was 6.58 µM (inactive); in the experiment on NCI/ADR-RES, 15.8 µM (inactive); in the experiment with OVCAR-3, 2.2 µM (inactive); in the experiment on PC-3 it was 3.1 µM (inactive); in the experiment on RPMI-8226 it was 0.483 µM (active). For the same compound, the GI50 was 11.6 µM (inactive) in the experiment with SF-295; 1.75 µM (inactive) in the experiment on SK-MEL-2; 3.19 µM (inactive) with SK-MEL-5; 10.8 µM (inactive) in the experiment with SK-OV-3; 2.82 µM (inactive) in the experiment with SN12C; 1.1 µM (active) in the experiment on SR. Moreover, the GI50 in the experiment on SW-620 is 0.667 µM (active); in the experiment on UACC-62, 1.69 µM (inactive).
Regarding `CC(=O)c1ccc2c(c1)CC1(C2)Cc2ccc3c(c2C1=O)CCC3` (stereo not given), the GI50 with 786-0 was 17.6 µM (inactive); in the experiment on CAKI-1, 23.2 µM (inactive); with HCC 2998, 15 µM (inactive); with MCF7, 22.5 µM (inactive); in the experiment with MDA-MB-231, 35.6 µM (inactive); in the experiment on MDA-N, 21.8 µM (inactive). Besides, the GI50 with MOLT-4 was 14.9 µM (inactive); in the experiment on NCI-H460, 29.3 µM (inactive); in the experiment on NCI/ADR-RES, 20.1 µM (inactive); in the experiment on OVCAR-3 it was 31 µM (inactive); in the experiment with PC-3, 21.6 µM (inactive); in the experiment on RPMI-8226, 16.1 µM (inactive). Moreover, the GI50 was 31 µM (inactive) in the experiment with SF-295; 17.1 µM (inactive) in the experiment with SK-MEL-2; 13.3 µM (inactive) in the experiment on SK-MEL-5; 34.9 µM (inactive) in the experiment on SK-OV-3; 31.8 µM (inactive) in the experiment on SN12C; 65.5 µM (inactive) in the experiment with SR. The GI50 with SW-620 is 41 µM (inactive); in the experiment on UACC-62, 22.1 µM (inactive).
On to `O=Cc1[nH]c(=O)[nH]c(=O)c1CCl`, for which the GI50 in the experiment with 786-0 was 74.8 µM (inactive); in the experiment with CAKI-1, > 100 µM (inactive); with HCC 2998, > 100 µM (inactive); in the experiment on MCF7, > 65.8 µM (inactive); in the experiment on MDA-MB-231, > 100 µM (inactive); in the experiment on MDA-N, > 100 µM (inactive). Further, the GI50 with MOLT-4 was > 96.8 µM (inactive); with NCI-H460 it was > 55.8 µM (inactive); in the experiment with NCI/ADR-RES, > 100 µM (inactive); in the experiment with OVCAR-3, > 100 µM (inactive); with PC-3, > 100 µM (inactive); in the experiment with RPMI-8226 it was > 48.6 µM (inactive). For the same compound, the GI50 in the experiment with SF-295 is > 100 µM (inactive); with SK-MEL-2 it was > 90.2 µM (inactive); with SK-MEL-5 it was > 82 µM (inactive); in the experiment with SK-OV-3, > 100 µM (inactive); in the experiment on SN12C it was > 100 µM (inactive); in the experiment on SR, 30.6 µM (inactive). Also, the GI50 was 38.7 µM (inactive) with SW-620 and > 96.4 µM (inactive) with UACC-62.
`N#CCCN(CCC#N)c1ccc(C(/N=N/c2ccccc2)=N\c2ccccc2)cc1`: the GI50 in the experiment with 786-0, in the experiment on CAKI-1, in the experiment on HCC 2998, in the experiment with MCF7, in the experiment on MDA-MB-231 and in the experiment on MDA-N was > 100 µM (inactive) each time. Also, the GI50 in the experiment with MOLT-4, with NCI-H460, with NCI/ADR-RES, with OVCAR-3, in the experiment on PC-3 and in the experiment with RPMI-8226 was > 100 µM (inactive) each time. For the same compound, the GI50 with SF-295, in the experiment with SK-MEL-2, in the experiment on SK-MEL-5, in the experiment with SK-OV-3, with SN12C and with SR was > 100 µM (inactive) in each case. Further, the GI50 with SW-620 and in the experiment on UACC-62 was > 100 µM (inactive) throughout.
`O=C(O)Cc1cccnc1`: the GI50 with 786-0, with CAKI-1, in the experiment on HCC 2998, with MCF7, with MDA-MB-231 and in the experiment with MDA-N was > 100 µM (inactive) throughout. In addition, the GI50 in the experiment with MOLT-4, in the experiment with NCI-H460, in the experiment with NCI/ADR-RES, in the experiment with OVCAR-3, in the experiment with PC-3 and with RPMI-8226 was > 100 µM (inactive) each time. The GI50 in the experiment with SF-295, in the experiment on SK-MEL-2, in the experiment on SK-MEL-5, in the experiment on SK-OV-3, with SN12C and with SR was > 100 µM (inactive) each time. The GI50 with SW-620 and with UACC-62 was > 100 µM (inactive) throughout.
Regarding `COc1cc(/C=C2\C(=O)N(c3ccc(NC(C)=O)cc3)C(c3ccccc3)S2(=O)=O)cc(OC)c1OC` (stereo not given), the GI50 in the experiment on 786-0 was > 100 µM (inactive); in the experiment with CAKI-1, > 100 µM (inactive); in the experiment on HCC 2998 it was > 100 µM (inactive); in the experiment with MCF7 it was 45.5 µM (inactive); with MDA-MB-231 it was > 100 µM (inactive); in the experiment on MDA-N, 79.6 µM (inactive). Moreover, the GI50 is 25.1 µM (inactive) with MOLT-4; > 100 µM (inactive) with NCI-H460; > 100 µM (inactive) in the experiment on NCI/ADR-RES; 93.3 µM (inactive) with OVCAR-3; 48.4 µM (inactive) in the experiment with PC-3; 60.8 µM (inactive) with RPMI-8226. Besides, the GI50 in the experiment on SF-295 is 78 µM (inactive); in the experiment with SK-MEL-2 it was > 100 µM (inactive); in the experiment on SK-MEL-5, 68.1 µM (inactive); in the experiment with SK-OV-3 it was > 100 µM (inactive); in the experiment on SN12C it was > 100 µM (inactive); with SR it was 36.7 µM (inactive). Moreover, the GI50 with SW-620 and in the experiment on UACC-62 was > 100 µM (inactive) in each case.
As for `COC(=O)CCC1=NCC(C)(C)O1`, the GI50 with 786-0, in the experiment with CAKI-1, with HCC 2998, in the experiment on MCF7, in the experiment on MDA-MB-231 and with MDA-N was > 10 µM (inactive) throughout. The GI50 in the experiment on MOLT-4, in the experiment on NCI-H460, in the experiment with NCI/ADR-RES, in the experiment on OVCAR-3, with PC-3 and in the experiment with RPMI-8226 was > 10 µM (inactive) each time. Also, the GI50 in the experiment on SF-295, with SK-MEL-2, in the experiment on SK-MEL-5, in the experiment on SK-OV-3, with SN12C and with SR was > 10 µM (inactive) each time. Further, the GI50 in the experiment with SW-620 and with UACC-62 was > 10 µM (inactive) in each case.
